Test results from ChEMBL document CHEMBL1201862, “PubChem BioAssay data set” (2004).
The source made the active and inactive calls.

Assays:
Leucine aminopeptidase = biological target: T1, Leucine aminopeptidase (Plasmodium falciparum 3D7, UniProt Q8IL11); experiment: P. falciparum M17LAP inhibitors, primary screen, biochemical, fluorogenic H-Leu-NHMec substrate, 1536-well (AID 1619); assay type: functional
T1 sequence (Q8IL11 whole entry): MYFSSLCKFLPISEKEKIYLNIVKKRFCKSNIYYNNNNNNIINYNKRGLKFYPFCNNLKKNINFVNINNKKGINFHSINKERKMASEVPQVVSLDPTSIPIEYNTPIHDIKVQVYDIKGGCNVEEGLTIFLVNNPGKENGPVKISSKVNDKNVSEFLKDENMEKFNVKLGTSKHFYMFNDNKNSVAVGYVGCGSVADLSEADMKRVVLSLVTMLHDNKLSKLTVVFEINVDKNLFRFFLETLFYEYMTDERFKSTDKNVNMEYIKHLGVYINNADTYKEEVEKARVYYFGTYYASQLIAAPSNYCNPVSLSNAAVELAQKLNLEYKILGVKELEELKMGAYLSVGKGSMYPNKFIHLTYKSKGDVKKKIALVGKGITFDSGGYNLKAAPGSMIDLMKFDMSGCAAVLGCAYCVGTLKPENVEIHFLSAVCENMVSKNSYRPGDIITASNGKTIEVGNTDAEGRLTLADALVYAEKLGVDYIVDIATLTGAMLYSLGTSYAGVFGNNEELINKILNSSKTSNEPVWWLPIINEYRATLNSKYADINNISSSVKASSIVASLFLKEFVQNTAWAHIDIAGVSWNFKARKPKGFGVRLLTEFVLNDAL

[1] = biological target: T2, Polyadenylate-binding protein 1 (Homo sapiens, UniProt P11940); experiment: PABP1 MLLE–PAM2 binding inhibitor potency, dose response, biochemical, fluorescence polarization, FITC-PAM2 peptide (AID 602259); assay type: functional; details: read-out: IC50_Mean
T2 sequence (P11940 whole entry): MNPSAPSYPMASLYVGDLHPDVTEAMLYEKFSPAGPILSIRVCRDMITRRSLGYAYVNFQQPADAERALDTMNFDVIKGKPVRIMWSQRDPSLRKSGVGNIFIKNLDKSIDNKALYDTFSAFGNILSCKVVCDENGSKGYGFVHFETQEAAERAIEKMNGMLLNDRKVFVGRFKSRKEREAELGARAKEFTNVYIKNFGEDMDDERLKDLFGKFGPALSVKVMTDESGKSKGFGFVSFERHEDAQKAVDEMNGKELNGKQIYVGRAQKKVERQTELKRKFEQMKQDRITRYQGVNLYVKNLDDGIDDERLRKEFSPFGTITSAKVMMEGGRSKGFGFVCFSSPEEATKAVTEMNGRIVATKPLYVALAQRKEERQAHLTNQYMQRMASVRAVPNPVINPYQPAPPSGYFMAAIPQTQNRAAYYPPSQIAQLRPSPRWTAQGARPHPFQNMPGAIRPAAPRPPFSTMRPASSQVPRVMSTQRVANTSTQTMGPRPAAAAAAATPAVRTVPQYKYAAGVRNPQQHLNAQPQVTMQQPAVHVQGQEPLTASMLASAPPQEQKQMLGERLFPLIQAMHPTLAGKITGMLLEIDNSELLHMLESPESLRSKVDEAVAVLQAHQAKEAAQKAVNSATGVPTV

[2] = biological target: T2, Polyadenylate-binding protein 1; experiment: PABP1 MLLE–PAM2 interaction inhibitors, dose response, miRNA deadenylation inhibitor project, biochemical, fluorescence polarization, Cy5-PAM2 peptide, secondary (AID 602260); assay type: functional; details: read-out: IC50_Mean
Genome polyprotein = Genome polyprotein (dengue virus type 2, UniProt P29990); experiment: Dengue-2 NS5 methyltransferase inhibitors, primary screen, biochemical, confirmation dose response (AID 588689); assay type: functional
Genome polyprotein, sequence (P29990 2492-3391 limits assumed): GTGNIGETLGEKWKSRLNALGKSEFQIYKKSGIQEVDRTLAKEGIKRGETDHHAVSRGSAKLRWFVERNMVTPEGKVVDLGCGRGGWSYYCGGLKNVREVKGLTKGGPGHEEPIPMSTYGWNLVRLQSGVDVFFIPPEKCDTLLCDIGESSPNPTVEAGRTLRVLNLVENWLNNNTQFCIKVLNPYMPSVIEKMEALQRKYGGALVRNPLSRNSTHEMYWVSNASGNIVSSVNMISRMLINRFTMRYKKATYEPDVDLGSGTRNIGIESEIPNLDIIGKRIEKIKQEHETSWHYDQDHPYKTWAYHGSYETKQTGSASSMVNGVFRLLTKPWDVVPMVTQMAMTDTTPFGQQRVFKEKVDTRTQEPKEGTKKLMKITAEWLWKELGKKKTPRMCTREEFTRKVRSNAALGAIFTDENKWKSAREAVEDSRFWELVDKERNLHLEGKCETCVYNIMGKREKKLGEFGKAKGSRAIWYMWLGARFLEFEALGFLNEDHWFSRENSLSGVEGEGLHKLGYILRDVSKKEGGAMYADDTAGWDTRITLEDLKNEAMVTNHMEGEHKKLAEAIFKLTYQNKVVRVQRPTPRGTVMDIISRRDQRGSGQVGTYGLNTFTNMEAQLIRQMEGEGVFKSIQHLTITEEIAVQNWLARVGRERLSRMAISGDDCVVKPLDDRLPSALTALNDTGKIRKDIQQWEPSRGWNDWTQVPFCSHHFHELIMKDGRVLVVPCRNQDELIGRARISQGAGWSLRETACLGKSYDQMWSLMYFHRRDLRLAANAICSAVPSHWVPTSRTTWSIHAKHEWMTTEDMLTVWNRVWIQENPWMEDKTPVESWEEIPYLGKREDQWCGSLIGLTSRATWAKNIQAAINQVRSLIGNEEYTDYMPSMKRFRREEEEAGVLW

Fatty acid synthase [3] = biological target: T3, Fatty acid synthase (Homo sapiens, UniProt P49327); experiment: FAS thioesterase domain inhibitors, dose response, biochemical, kinetic fluorescence intensity (AID 624326); assay type: functional;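 also: rate of fluorescence rise from hydrolysis of a fluorogenic O-methyl fluorescein ester substrate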
T3 sequence (P49327 whole entry, the tested form may be a part): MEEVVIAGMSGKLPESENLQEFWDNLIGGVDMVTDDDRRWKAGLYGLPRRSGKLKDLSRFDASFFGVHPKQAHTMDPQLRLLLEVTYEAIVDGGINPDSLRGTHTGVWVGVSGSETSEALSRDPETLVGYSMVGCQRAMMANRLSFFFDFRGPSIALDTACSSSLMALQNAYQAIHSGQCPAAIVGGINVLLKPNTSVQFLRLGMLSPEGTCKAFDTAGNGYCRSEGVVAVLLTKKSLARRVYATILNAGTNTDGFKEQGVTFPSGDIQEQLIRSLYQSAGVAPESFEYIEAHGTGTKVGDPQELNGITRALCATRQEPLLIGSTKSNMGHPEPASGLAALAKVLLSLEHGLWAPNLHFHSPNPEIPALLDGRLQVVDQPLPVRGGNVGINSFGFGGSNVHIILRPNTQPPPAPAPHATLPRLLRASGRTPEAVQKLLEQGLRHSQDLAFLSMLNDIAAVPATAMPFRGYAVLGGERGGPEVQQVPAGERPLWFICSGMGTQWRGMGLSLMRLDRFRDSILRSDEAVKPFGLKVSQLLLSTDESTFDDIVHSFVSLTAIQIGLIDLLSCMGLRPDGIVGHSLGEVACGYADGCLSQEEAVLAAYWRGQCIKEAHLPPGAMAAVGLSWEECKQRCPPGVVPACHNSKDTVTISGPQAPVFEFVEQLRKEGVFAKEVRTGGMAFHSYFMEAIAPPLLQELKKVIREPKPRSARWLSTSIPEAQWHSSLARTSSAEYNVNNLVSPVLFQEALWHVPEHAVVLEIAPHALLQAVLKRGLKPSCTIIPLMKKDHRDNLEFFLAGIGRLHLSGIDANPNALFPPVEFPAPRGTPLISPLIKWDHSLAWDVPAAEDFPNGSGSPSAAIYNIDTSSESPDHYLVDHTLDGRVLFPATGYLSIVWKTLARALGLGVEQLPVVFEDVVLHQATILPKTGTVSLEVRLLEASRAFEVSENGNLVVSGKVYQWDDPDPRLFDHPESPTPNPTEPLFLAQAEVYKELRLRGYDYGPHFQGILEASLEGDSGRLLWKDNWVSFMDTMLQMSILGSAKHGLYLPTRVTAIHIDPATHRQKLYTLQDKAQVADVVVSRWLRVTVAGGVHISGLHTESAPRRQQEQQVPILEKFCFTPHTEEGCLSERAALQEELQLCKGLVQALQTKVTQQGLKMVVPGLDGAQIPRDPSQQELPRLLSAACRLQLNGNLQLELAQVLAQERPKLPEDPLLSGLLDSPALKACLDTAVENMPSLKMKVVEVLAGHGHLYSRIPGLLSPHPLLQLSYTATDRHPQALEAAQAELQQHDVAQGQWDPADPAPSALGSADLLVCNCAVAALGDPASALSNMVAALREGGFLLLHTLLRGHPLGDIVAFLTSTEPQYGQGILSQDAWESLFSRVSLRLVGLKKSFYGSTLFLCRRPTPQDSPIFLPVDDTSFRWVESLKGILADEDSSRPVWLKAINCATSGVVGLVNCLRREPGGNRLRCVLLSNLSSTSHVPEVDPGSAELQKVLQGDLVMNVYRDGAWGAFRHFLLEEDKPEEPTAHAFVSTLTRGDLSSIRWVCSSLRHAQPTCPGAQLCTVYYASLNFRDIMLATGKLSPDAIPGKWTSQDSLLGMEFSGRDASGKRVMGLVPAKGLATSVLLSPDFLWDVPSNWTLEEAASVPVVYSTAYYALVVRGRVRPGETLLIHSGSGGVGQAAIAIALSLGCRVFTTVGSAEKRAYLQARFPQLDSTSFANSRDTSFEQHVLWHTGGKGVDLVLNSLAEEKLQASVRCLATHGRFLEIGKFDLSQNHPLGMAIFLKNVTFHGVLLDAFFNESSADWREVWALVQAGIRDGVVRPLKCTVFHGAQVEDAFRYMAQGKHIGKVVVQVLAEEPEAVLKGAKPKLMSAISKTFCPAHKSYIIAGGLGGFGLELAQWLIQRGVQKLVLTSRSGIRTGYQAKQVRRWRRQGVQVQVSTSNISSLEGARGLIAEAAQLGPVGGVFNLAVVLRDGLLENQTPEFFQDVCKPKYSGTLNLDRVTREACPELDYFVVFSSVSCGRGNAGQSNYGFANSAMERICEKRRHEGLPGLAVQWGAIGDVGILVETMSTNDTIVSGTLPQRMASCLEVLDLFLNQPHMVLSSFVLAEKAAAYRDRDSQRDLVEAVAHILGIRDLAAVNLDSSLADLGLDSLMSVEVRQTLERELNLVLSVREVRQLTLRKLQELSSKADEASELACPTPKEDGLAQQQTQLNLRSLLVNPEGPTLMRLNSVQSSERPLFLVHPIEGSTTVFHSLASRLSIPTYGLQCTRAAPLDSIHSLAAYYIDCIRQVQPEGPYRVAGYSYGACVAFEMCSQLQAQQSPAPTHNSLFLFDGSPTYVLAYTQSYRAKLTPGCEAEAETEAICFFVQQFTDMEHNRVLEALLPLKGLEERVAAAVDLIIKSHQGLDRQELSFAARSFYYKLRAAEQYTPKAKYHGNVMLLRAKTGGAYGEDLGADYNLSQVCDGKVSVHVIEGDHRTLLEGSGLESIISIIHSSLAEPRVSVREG

Fatty acid synthase [4] = biological target: T3, Fatty acid synthase; experiment: FAS thioesterase domain inhibitors, dose response, biochemical, endpoint fluorescence intensity, uHTS hits (AID 624327); assay type: functional;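 also: fluorescence from hydrolysis of an O-methyl fluorescein acyl ester substrate by the enzyme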
[5] = biological target: T4, Corticotropin-releasing factor receptor 2/Corticotropin-releasing factor-binding protein (Homo sapiens, UniProt P24387+Q13324); experiment: activators of CRF receptor 2 with binding protein – uHTS hits, confirmation (AID 602473); assay type: functional; details: read-out: EC50_Mean
T4 sequence (Q13324 whole entry): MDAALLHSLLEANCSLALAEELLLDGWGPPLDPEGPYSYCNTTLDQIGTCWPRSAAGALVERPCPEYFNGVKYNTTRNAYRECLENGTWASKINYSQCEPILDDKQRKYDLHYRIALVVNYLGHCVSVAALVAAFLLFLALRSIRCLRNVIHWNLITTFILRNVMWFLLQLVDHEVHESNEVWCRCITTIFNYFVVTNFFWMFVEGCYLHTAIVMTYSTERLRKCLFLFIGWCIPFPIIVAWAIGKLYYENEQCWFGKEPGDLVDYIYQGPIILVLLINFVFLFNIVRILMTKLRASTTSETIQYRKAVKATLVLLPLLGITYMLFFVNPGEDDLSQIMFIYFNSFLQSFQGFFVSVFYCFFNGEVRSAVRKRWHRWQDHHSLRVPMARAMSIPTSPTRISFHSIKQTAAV
T4 sequence (P24387 whole entry): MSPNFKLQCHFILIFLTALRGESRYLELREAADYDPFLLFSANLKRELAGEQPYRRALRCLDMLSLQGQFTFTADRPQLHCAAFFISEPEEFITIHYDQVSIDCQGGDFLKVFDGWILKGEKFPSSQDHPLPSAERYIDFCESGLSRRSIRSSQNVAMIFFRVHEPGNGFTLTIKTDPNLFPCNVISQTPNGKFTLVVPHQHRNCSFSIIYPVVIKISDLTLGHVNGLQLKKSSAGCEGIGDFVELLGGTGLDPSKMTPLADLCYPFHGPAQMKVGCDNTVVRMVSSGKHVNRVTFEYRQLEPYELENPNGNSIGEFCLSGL

[6] = biological target: T4, Corticotropin-releasing factor receptor 2/Corticotropin-releasing factor-binding protein; experiment: Dose Response confirmation of uHTS hits for small molecule antagonists of the CRF-binding protein and CRF-R2 receptor complex.; assay type: functional; details: read-out: IC50_Mean
[7] = control 3'UTR Renilla luciferase suppression, dose response, counter-screen for Shn3 inhibitor project, cell-based, Clone20-Shn3RL, cherry-picked (AID 624133); assay type: functional
[8] = Shn3 3'UTR reporter inhibitors, dose response, cell-based, Clone20 osteoblasts, firefly luciferase, cherry-picked (AID 624132); assay type: functional;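 also: firefly luciferase luminescence from reporter carrying the Shn3 3'UTR in osteoblasts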
[9] = biological target: T5, Carboxy-terminal domain RNA polymerase II polypeptide A small phosphatase 1 (Homo sapiens, UniProt Q9GZU7); experiment: inhibitors of CTDSP1, concentration-response testing, biochemical assay, absorbance-based, actives from ultra-high-throughput screening (AID 540297); assay type: functional
T5 sequence (Q9GZU7 whole entry): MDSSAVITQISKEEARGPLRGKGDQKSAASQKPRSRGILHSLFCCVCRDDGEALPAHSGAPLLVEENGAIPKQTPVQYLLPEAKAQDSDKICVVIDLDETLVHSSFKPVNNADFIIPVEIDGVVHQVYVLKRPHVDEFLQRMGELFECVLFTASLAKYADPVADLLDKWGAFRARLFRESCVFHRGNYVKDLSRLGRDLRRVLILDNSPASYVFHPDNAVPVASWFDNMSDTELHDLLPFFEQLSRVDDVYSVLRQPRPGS

[10] = inhibitors of clade B AD8 Env fusion, dose response, cell-based, cherry-pick (AID 652062); assay type: functional;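 also: luciferase signal from cell-cell fusion driven by HIV-1 clade B AD8 Env; potency is for inhibitors of fusion seen as a drop in luminescence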
[11] = NIH:OVCAR-3 ovarian cancer cell cytotoxicity, dose response, PAX8 inhibitor project, plate reader, dry powder samples (AID 743044); assay type: functional, cell-based
Paired box protein Pax-8 = Paired box protein Pax-8 (Homo sapiens, UniProt Q06710); experiment: inhibitors of PAX8-driven TPO luciferase reporter, dose response, RMG-I cells, cherry-pick (AID 687027); assay type: functional, cell-based;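 also: luciferase reporter driven by Pax8 target thyroperoxidase promoter measured by SteadyGlo luminescence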
Paired box protein Pax-8, sequence (Q06710 whole entry): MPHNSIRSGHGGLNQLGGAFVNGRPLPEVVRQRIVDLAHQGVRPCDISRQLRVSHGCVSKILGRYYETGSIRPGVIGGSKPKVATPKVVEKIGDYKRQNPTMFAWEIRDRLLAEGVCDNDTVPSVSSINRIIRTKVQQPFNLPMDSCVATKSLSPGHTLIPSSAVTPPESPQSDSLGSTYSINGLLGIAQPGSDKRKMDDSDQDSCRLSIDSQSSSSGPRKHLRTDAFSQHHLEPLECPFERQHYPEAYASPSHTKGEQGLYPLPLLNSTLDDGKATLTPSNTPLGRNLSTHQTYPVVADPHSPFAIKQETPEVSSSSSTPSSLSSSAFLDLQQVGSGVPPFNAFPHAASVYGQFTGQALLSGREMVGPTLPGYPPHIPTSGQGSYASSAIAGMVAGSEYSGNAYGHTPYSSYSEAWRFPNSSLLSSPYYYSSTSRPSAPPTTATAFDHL

For `CC(C)C(=O)Nc1nnc(SCC(=O)Nc2ccc3c(c2)OCCO3)s1`, the IC50 (Leucine aminopeptidase) was 18.9 µM (active).

For `Cc1ccccc1NC(=O)CSc1nnc(C)c(O)n1`, the IC50 [1] was > 66 µM (inactive) and the IC50 [2] was > 66 µM (inactive).

For `O=C1Nc2ccc(Cl)cc2C12Nc1ccccc1-c1nnc(SCc3ccccc3F)nc1O2` (configuration not stated), the IC50 (Genome polyprotein) was 43.2 µM (active).

For `COc1ccc(/C=C(/NC(=O)c2ccc([N+](=O)[O-])cc2)C(=O)NC(C)(C)C)cc1`, the IC50 (Fatty acid synthase [3]) was 2.56 µM (active) and the IC50 (Fatty acid synthase [4]) was 3.45 µM (active).

In the case of `Cc1cc(C)n2cc(CSc3nnc(N)s3)nc2n1`, the IC50 [1] is reported as > 66 µM (inactive) and the IC50 [2] is reported as > 66 µM (inactive).

For `O=C(O)CC(Cc1ccccc1)C(=O)Nc1ccc([N+](=O)[O-])cc1` (configuration not stated), the IC50 (Leucine aminopeptidase) was 15.7 µM (active).

For `C#CCOc1ccc(/C=C2/C(=O)ON=C2C)cc1Cl`, the IC50 (Genome polyprotein) was 97.1 µM (active).

With `COc1ccccc1-n1cc(-c2ccc([N+](=O)[O-])cc2)nc1S` the IC50 [1] was > 66 µM (inactive) and the IC50 [2] was > 66 µM (inactive).

For `O=C1NC(=S)N/C1=C/C=C/c1ccccc1`, the IC50 (Genome polyprotein) was 99.8 µM (active).

In the case of `O=C(NC(=S)Nc1ccccc1)c1cc([N+](=O)[O-])ccc1N1CCOCC1`, the IC50 (Fatty acid synthase [3]) is reported as 8.19 µM (active) and the IC50 (Fatty acid synthase [4]) is reported as 17.2 µM (active).

For `O=C(COC(=O)CCc1c[nH]c(O)n1)Nc1ccccc1`, the IC50 [1] was 44.9 µM (inactive) and the IC50 [2] was > 66 µM (inactive).

For `CN(C)c1nc2n(c(=O)n1)C(C#N)CS2` (configuration not stated), the IC50 [1] was > 66 µM (inactive) and the IC50 [2] was > 66 µM (inactive).

For `N#Cc1c(NC(=O)Cn2cnc3ccccc3c2=O)oc(-c2ccccc2)c1-c1ccccc1`, the IC50 (Leucine aminopeptidase) was 1.47 µM (active).

For `O=C(O)c1ccc2c(c1)NC(=O)C(N1CCCC1)S2` (configuration not stated), the IC50 [1] was 55.5 µM (inactive) and the IC50 [2] was > 66 µM (inactive).

In the case of `COc1ccc(C(=O)N/C(=C\c2cn(S(=O)(=O)N(C)C)c3ccccc23)C(=O)NCCCN2CCOCC2)cc1`, the IC50 (Fatty acid synthase [3]) is reported as 7.83 µM (active) and the IC50 (Fatty acid synthase [4]) is reported as 8.48 µM (active).

With `CN1C[C@H](C(=O)N[C@]2(C)O[C@@]3(O)[C@@H]4CCCN4C(=O)[C@H](Cc4ccccc4)N3C2=O)CC2c3cccc4[nH]cc(c34)C[C@H]21` (some centres not stated) the IC50 (Fatty acid synthase [3]) was 8.09 µM (active) and the IC50 (Fatty acid synthase [4]) was 10.4 µM (active).

In the case of `CCOc1ccc(NC(=O)Cc2ccccc2)c([N+](=O)[O-])c1`, the IC50 (Leucine aminopeptidase) is reported as 2.92 µM (active).

For `O=C(CN1C(=O)c2ccccc2C1=O)NCC1COc2ccccc2O1` (configuration not stated), the IC50 (Leucine aminopeptidase) was 15.6 µM (active).

For `CCCCCCn1c(=O)c(F)cn(Cc2ccc(OC)c([N+](=O)[O-])c2)c1=O`, the EC50 [5] was > 53 µM (inactive), the IC50 [6] was > 47.1 µM (inactive) and the IC50 (Fatty acid synthase [3]) was 11.3 µM (active). The IC50 (Fatty acid synthase [4]) was 10.2 µM (active).

In the case of `CCOC(=O)c1sc(=S)n(-c2ccc3c(c2)OCO3)c1N`, the IC50 [1] is reported as > 66 µM (inactive) and the IC50 [2] is reported as > 66 µM (inactive).

For `O=C(Nn1c(C2CCCCC2)nc2ccccc2c1=O)c1ccc(Cl)c([N+](=O)[O-])c1`, the IC50 (Fatty acid synthase [3]) was 11.2 µM (active) and the IC50 (Fatty acid synthase [4]) was 12.8 µM (active).

For `CCN(c1ccccc1)S(=O)(=O)c1ccc(Cl)c(NC(=O)CN(C)Cc2cccc(F)c2)c1`, the AC50 [7] was 6.46 µM (active) and the AC50 [8] was 8.78 µM (active).

For `Cc1ccc([C@@H]2CC=C(C(=O)O)[C@H](c3ccc(Br)cc3)N2S(=O)(=O)c2ccc(C)cc2)cc1`, the IC50 (Genome polyprotein) was 42.5 µM (active).

In the case of `CCc1cccc(CC)c1NC(=O)CSc1nnc(CCC(=O)O)c(O)n1`, the IC50 [1] is reported as > 66 µM (inactive) and the IC50 [2] is reported as > 66 µM (inactive).

For `N#Cc1c(C(F)(F)F)cc(-c2cccs2)nc1SC(C(=O)O)c1ccccc1` (configuration not stated), the IC50 (Fatty acid synthase [3]) was 5.81 µM (active) and the IC50 (Fatty acid synthase [4]) was 4.45 µM (active).

With `Cc1cccc(C(=O)Oc2ccc(/C=N/NC(=O)c3cc(O)cc(O)c3)cc2)c1` the IC50 [9] was 4.14 µM (active).

In the case of `CC(=O)NS(=O)(=O)c1ccc(/N=c2\ssc3c2-c2cc(C)c(C)cc2NC3(C)C)cc1`, the IC50 (Leucine aminopeptidase) is reported as 3.72 µM (active).

For `CC(C)(C)c1ccc(C(=O)N2CCC2(C)C(=O)Nc2cccc(C#N)c2)cc1` (configuration not stated), the IC50 (Fatty acid synthase [3]) was 7.78 µM (active) and the IC50 (Fatty acid synthase [4]) was 5.47 µM (active).

For `O=C1COc2ccc(-c3cs/c(=N\c4ccc(OC(F)F)cc4)n3CC3CCCO3)cc2N1` (configuration not stated), the AC50 [10] was 18.6 µM (active).

In the case of `C[C@@H]1CN([C@H](C)CO)C(=O)c2cc(NC(=O)Nc3ccc(F)cc3)ccc2O[C@@H](C)CCCCO[C@H]1CN(C)S(=O)(=O)c1ccccc1`, the AC50 [11] is reported as 35.3 µM (active) and the AC50 (Paired box protein Pax-8) is reported as 4.82 µM (active).

In the case of `CN(C)c1ccc(/C=N/NC(=O)c2nonc2N)cc1[N+](=O)[O-]`, the IC50 (Leucine aminopeptidase) is reported as 56.1 µM (active).

For `CCC(C)CCCCCCCCCCC(=O)O` (configuration not stated), the IC50 (Genome polyprotein) was 42 µM (active).
